Test results: article PMC11217349, “Development of Nurr1 agonists from amodiaquine by scaffold hopping and fragment growing” (Communications Chemistry, 2024)
“And” between values parts separate entries of the source, which are not always exact repeats. Equal values may be shown once. “Also recorded” adds a separate entry of the source.

Experiments:
[1] = target: T1, RXRα (Homo sapiens, UniProt P19793); assay: Gal4-hybrid selectivity assay RXRα; format: cell-based; settings: 3 µM; reference agonist = 100%
T1 construct: chimeric receptors composed of the Gal4-DBD and the hinge region and LBD; expressed in transfected cells; host or cells: HEK293T
Method: Nurr1 modulation was determined in a Gal4 hybrid reporter gene assay in HEK293T cells (German Collection of Microorganisms and Cell Culture GmbH, DSMZ) using pFR-Luc (Stratagene, La Jolla, CA, USA; reporter), pRL-SV40 (Promega, Madison, WI, USA; internal control) and pFA-CMV-hNurr1-LBD[14], coding for the hinge region and ligand binding domain of the canonical isoform of human Nurr1. […] After 24 h, the medium was changed to Opti-MEM without supplements, and cells were transiently transfected using Lipofectamine LTX reagent (Invitrogen, Carlsbad, CA, USA) according to the manufacturer’s protocol. Five hours after transfection, cells were incubated with the test compounds in Opti-MEM supplemented with penicillin (100 U/mL), streptomycin (100 μg/mL), and 0.1% DMSO for 16 h before luciferase activity was measured using the Dual-Glo Luciferase Assay System (Promega) according to the manufacturer’s protocol on a Tecan Spark luminometer (Tecan Deutschland GmbH, Crailsheim, Germany). Firefly luminescence was divided by Renilla luminescence and multiplied by 1000 resulting in relative light units (RLU) to normalize for transfection efficiency and cell growth. Fold activation was obtained by dividing the mean RLU of the test compound by the mean RLU of the untreated control. All samples were tested in at least three biologically independent experiments in duplicates. […]

[2] = tested on: N27 rat neurons; assay: WST-8 cytotoxicity assay, N27; format: cell-based
Method: Each sample was prepared in four biologically independent repeats. After incubation for 24 h, the medium was refreshed and 10% water-soluble tetrazolinum salt (Cell Counting Kit-8, MedChemExpress) was added to assess metabolic activity. After 4 h, absorbance was measured at 450 nm using a Tecan Spark Cyto instrument (Tecan).

[3] = Microsomal stability; format: in vitro ADME, rat; settings: for AUC x10^5 (LC-MS peak area of 36 and its demethylated metabolites): incubation of 36 with rat liver microsomes, listed as 36-N(CH3)2
Method: To determine microsomal stability, test compounds (10 μM) were incubated in 100 mM potassium phosphate buffer at pH 7.4 (total volume of 100 µL) containing 0.5 mg/mL male rat liver microsomes (Sprague-Dawley, no. M9066, Merck KGaA, Darmstadt) and 1 mM NADPH for 0, 15, 30, or 60 min. At the end of the incubation time, microsomal activity was terminated by the addition of 500 µL MeCN and subsequent centrifugation at 1700 g for 5 min. A reaction mixture containing heat-inactivated microsomes (95 °C, 10 min) was prepared as a control for each compound. 5 µL supernatant of each sample was analyzed and the remaining concentrations of the respective test compounds at each time point were determined by LC-MS/MS on an API-3200-QTrap (Sciex) with an Agilent Technologies 1100 series setup including a binary pump (G1311A), a degasser (G1322A), and a Shimadzu SIL 20 A HT autosampler under the control of Analyst 1.6 (Sciex). A XBridge BEH C18 (3.5 µm, 150 mm×3 mm, Waters, protected with a 0.5 µm frit) stationary phase was used in combination with a gradient method starting with 0.1% formic acid in water (A) and MeCN (B) as mobile phase (A:B = 80:20) for 6 min going to A: B = 50:50 after 8 min. 5 µL of supernatant diluted in mobile phase starting conditions was loaded onto the column, separated at a flow rate of 400 µL/min, and detected and quantified per Area of MRM (multiple reaction monitoring) with the following transitions: m/z 381.797/145.000 (34); m/z 395.125/158.200 (36); m/z 409.822/131.000 (41); m/z 407.838/171.100 (42).

T1 sequence (P19793 227-458 limits assumed): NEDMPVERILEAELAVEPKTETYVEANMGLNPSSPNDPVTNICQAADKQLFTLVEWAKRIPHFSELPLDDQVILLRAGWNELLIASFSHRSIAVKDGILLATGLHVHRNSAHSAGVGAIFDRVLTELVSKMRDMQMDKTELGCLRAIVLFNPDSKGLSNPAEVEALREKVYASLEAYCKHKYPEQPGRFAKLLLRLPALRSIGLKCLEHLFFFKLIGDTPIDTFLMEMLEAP

Compound: Cc1nc2c(Cl)cccn2c1NC(=O)c1ccc(-c2ccc(N(C)C)cc2)o1 [Compound 36, N-(8-Chloro-2-methylimidazo[1,2-a]pyridin-3-yl)-5-(4-(dimethylamino)phenyl)furan-2-carboxamide]
- % rel. act. RXRα [1]: 0.348% and 0.360% and 0.470%
- rel. absorbance (450 nm) ([2]; N27, 10 µM, WST-8, vs DMSO ctrl): 94% and 99% and 90% and 91%
- toxicity (WST-8) ([2]; N27 rat neurons, 24 h): no toxic effect; also recorded: non-toxic; also recorded: inactive (10 µM)
- metabolism by rat liver microsomes (route) [3]: almost exclusively degraded by demethylation of the dimethylamino motif
- AUC x10^5 (LC-MS peak area of 36 and its demethylated metabolites) ([3]; time 0 min): 7.35 x10^5 and 8.16 x10^5 and 6.56 x10^5 and 7.96 x10^5
- AUC x10^5 (LC-MS peak area of 36 and its demethylated metabolites) ([3]; time 15 min): 1.47 x10^5 and 1.4 x10^5 and 1.5 x10^5 and 1.61 x10^5
- half-life at 10 µM ([3]; male, Sprague-Dawley, pH 7.4, rat liver microsomes, 10 µM, LCMS): 6.3 ± 0.3 min
